Results from patent publication US20190231411A1, “METHOD FOR PREDICTING CYTOTOXICITY OF COLD ATMOSPHERIC PLASMA TREATMENT ON CANCER CELLS” (U.S. Patent Innovations, LLC, priority 2018, published 2019).

System: B16F10 cells
Assay: H2O2 treatment, MTT cell viability assay
Format: cell-based, murine
Conditions: compared with the other cell lines, FIG. 7B
Procedure: Cell cultures. The experiment investigated 10 cancer cell lines, which include many representative cell lines in plasma medicine. Human pancreas ductal adenocarcinoma cell line (PANC-1) was purchased from American Type Culture Collection (ATCC). Other cell lines were donated by several labs at the George Washington University. These cells were all purchased from ATCC by the different labs. Human pancreatic adenocarcinoma cell line (PA-TU-8988T), human glioblastoma cell line (U87MG), as well as human lung carcinoma cell line (A549) were provided by Dr. Murad's lab. Human breast cancer cell lines (MDA-MB-231, MCF-7) were provided by Dr. Zhang's lab. Human ovarian carcinoma cell line (SK-OV-3), human ovarian carcinoma cell line (IGROV-1), human colorectal carcinoma cell line (HCT116), as well as human bone osteosarcoma cell line (U-2 OS) were provided by Dr. Zhu's lab. Murine melanoma cell line (B16F10) was provided by Dr. Sotomayor's lab. […]
Cell viability assay. […] The absorbance at 570 nm was measured by a H1 microplate reader (Hybrid Technology). The measured absorbance was processed to be a relative cell viability by the division between the data of the experimental group and the control group.

SMILES: OO [H2O2]
- resistance to H2O2 treatment: strongest resistance to H2O2 treatment
